System: 817829-284-R-J1-PDC complex spheroids, viability
Assay: Anticancer human tumor 817829-284-R-J1-PDC patient-derived colon adenocarcinoma cell line growth inhibition [GQUAD]
Conditions: for IC50: curve of first compound; for viability, T/C: stronger effect = lower value
From the text: DNA G-quadruplex Stabilizer Agents in Combinations in Complex Spheroids
A high-throughput screen of multi-cell type tumor spheroids was designed to identify active combinations of DNA G-quadruplex stabilizer agents and targeted small molecules. Complex spheroids include a stromal component modeled by human endothelial cells (HUVEC) and fibroblasts modeled by human mesenchymal stem cells (MSCs). The concentration ranges selected for each drug and investigational agent were based upon clinically achievable concentrations if the clinical Cmax of the agent was known.
Compounds. The drugs and investigational agents: pidnarulex (CX-5461; NSC782164), APTO-253 (NSC789042), BRACO-19 (NSC847499), peposertib (NSC802822), ceralasertib (NSC780249), elimusertib (NSC800525), camonsertib (NSC841442), AZD-1390 (NSC803789), olaparib (NSC753686), talazoparib (NSC767125), ART-558 (NSC835418), sotorasib (NSC818433), MRTX-1133 (NSC836407), SN-38 (NSC673596), topotecan (NSC609699), etoposide (NSC141540), doxorubicin (NSC123127), gemcitabine (NSC613327), 5-fluorouracil (NSC19893), paclitaxel (NSC125973), vemurafenib (NSC761431), panobinostat (NSC761190), R-306465 (JNJ-16241199; NSC773264), adavosertib (NSC754352), TP-3654 (NSC805149), carboplatin (NSC241240), KSQ-4279 (NSC840948), and staurosporine (NSC755774) were obtained from the National Cancer Institute (NCI) Developmental Therapeutics Program Chemical Repository (34). The FDA-approved anticancer drug set is available from the NCI Developmental Therapeutics Program. […] The stock solutions were prepared in dimethyl sulfoxide (DMSO, Sigma-Aldrich, St. Louis, MO, cat. D2650) at 800-fold the tested concentration and stored at -70 degrees C prior to their use. All drugs and investigational agents were tested over a range starting from a high concentration at or near the clinical Cmax and decreasing in half-log increments. If the clinical Cmax for an agent had not been determined, the highest concentration tested was 10 microM.
2.3 Cell Culture. All cells were maintained in an incubator at 37 degrees C and 5% CO2 with 95% humidity. The PDC lines were cultured according to standard operating procedures established by the NCI PDMR. All PDCs were thawed and cultured in Matrigel-coated flasks prepared with a working solution of 1X Ham's F-12 nutrient mix, without supplementation (Invitrogen, cat. 11765054), 100 U/mL penicillin-streptomycin (Invitrogen, cat. 15140122), and 2.5% Matrigel (Corning Inc., cat. 354248) for the first three passages. The 857933-349-R-J2-PDC line was cultured in 6C/Colon 1B media, which includes advanced DMEM/F-12 (Thermo Fisher Scientific, cat. 12634028), 10 mM HEPES (Thermo Fisher Scientific, cat. 15630080), 1X GlutaMAX supplement (Thermo Fisher Scientific, cat. 35050061), 0.1 mg/mL primocin (InvivoGen, cat. ant-pm-2), 10% defined fetal bovine serum, heat inactivated (HyClone Laboratories Inc., cat. SH30070.03HI), 50% L-WRN conditioned media (ATCC, cat. CRL-3276), 1.25 mM N-Acetyl-L-cysteine (Sigma-Aldrich, cat. A9165), 10 mM nicotinamide (Sigma-Aldrich, cat. N0636), 1X B-27 supplement (Thermo Fisher Scientific, cat. 17504044), 1X N-2 supplement (Thermo Fisher Scientific, cat. 17502048), 10 microM Y-27632 dihydrochloride (Tocris Bioscience, cat. 1254), and 50 ng/mL human EGF recombinant protein (Thermo Fisher Scientific, cat. PHG0311). The 485176-168-R4-J1-PDC line was cultured in Panc media, which includes all 6C/Colon 1B media components plus 100 ng/mL human FGF-10 (Thermo Fisher Scientific, cat. 100-26), 500 nM SB-431542 (Selleckchem, cat. S1067), and gastrin (Tocris, cat. 3006).
[…]
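Also: spheroids exposed to agents for 7 days before readout.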
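For viability, T/C in this document: percent viability relative to DMSO vehicle control taken as 100%.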

- IC50 (second compound 0.0316 µM): < 0.999 nM
- IC50 (second compound 0.1 µM): < 0.999 nM
- IC50 (second compound 0.316 µM): < 0.999 nM
- IC50 (second compound 1 µM): < 0.999 nM
- IC50 (second compound 3.16 µM): < 0.999 nM
- IC50 (second compound 10 µM): < 0.999 nM
Compound: CCc1c2c(nc3ccc(O)cc13)-c1cc3c(c(=O)n1C2)COC(=O)[C@]3(O)CC + Cc1cnc(CNC(=O)c2c(=O)c3ccc(N4CCCN(C)CC4)nc3n3c2sc2ccccc23)cn1
- viability, T/C (second compound 0.0316 µM, first compound 0.000999 µM): 40.3%
- viability, T/C (second compound 0.0316 µM, first compound 0.00316 µM): 25.9%
- viability, T/C (second compound 0.0316 µM, first compound 0.00999 µM): 28.9%
- viability, T/C (second compound 0.0316 µM, first compound 0.0316 µM): 14.1%
- viability, T/C (second compound 0.0316 µM, first compound 0.0999 µM): 8.12%
- viability, T/C (second compound 0.0316 µM, first compound 0.316 µM): 3.77%
- viability, T/C (second compound 0.1 µM, first compound 0.000999 µM): 33.5%
- viability, T/C (second compound 0.1 µM, first compound 0.00316 µM): 29.6%
- viability, T/C (second compound 0.1 µM, first compound 0.00999 µM): 18.2%
- viability, T/C (second compound 0.1 µM, first compound 0.0316 µM): 15.5%
- viability, T/C (second compound 0.1 µM, first compound 0.0999 µM): 6.99%
- viability, T/C (second compound 0.1 µM, first compound 0.316 µM): 2.92%
- viability, T/C (second compound 0.316 µM, first compound 0.000999 µM): 21.6%
- viability, T/C (second compound 0.316 µM, first compound 0.00316 µM): 27.2%
- viability, T/C (second compound 0.316 µM, first compound 0.00999 µM): 22%
- viability, T/C (second compound 0.316 µM, first compound 0.0316 µM): 14.4%
- viability, T/C (second compound 0.316 µM, first compound 0.0999 µM): 7.47%
- viability, T/C (second compound 0.316 µM, first compound 0.316 µM): 2.52%
- viability, T/C (second compound 1 µM, first compound 0.000999 µM): 19.5%
- viability, T/C (second compound 1 µM, first compound 0.00316 µM): 25.2%
- viability, T/C (second compound 1 µM, first compound 0.00999 µM): 17.8%
- viability, T/C (second compound 1 µM, first compound 0.0316 µM): 13.5%
- viability, T/C (second compound 1 µM, first compound 0.0999 µM): 6.88%
- viability, T/C (second compound 1 µM, first compound 0.316 µM): 0.52%
- viability, T/C (second compound 3.16 µM, first compound 0.000999 µM): 20.3%
- viability, T/C (second compound 3.16 µM, first compound 0.00316 µM): 17.8%
- viability, T/C (second compound 3.16 µM, first compound 0.00999 µM): 15.5%
- viability, T/C (second compound 3.16 µM, first compound 0.0316 µM): 10.7%
- viability, T/C (second compound 3.16 µM, first compound 0.0999 µM): 3.99%
- viability, T/C (second compound 3.16 µM, first compound 0.316 µM): 0.15%
- viability, T/C (second compound 10 µM, first compound 0.000999 µM): 0.09%
- viability, T/C (second compound 10 µM, first compound 0.00316 µM): 0.14%
- viability, T/C (second compound 10 µM, first compound 0.00999 µM): 0.17%
- viability, T/C (second compound 10 µM, first compound 0.0316 µM): 0.14%
- viability, T/C (second compound 10 µM, first compound 0.0999 µM): 0.16%
- viability, T/C (second compound 10 µM, first compound 0.316 µM): 0.16%

Source: PubChem BioAssay AID2060503 (Molecular Pharmacology Branch, DTP, NCI, 2025)
